This note sets out measurements from ChEMBL document CHEMBL4819051, “Synthesis and antifungal activity of new hybrids thiazolo[4,5-d]pyrimidines with (1H-1,2,4)triazole” (Bioorg Med Chem Lett, 2021).

≈ marks a conversion by molar mass, not a printed value.

In data set [1] the test system is Candida albicans. Nature of the data set: Antifungal activity against Candida albicans 604M assessed as reduction in fungal growth incubated for 24 hrs by CLSI based serial microbroth dilution method. The format is functional.
The subject of data set [2] is Candida parapsilosis. The data set is described as follows: Antifungal activity against Candida parapsilosis ATCC 22019 assessed as reduction in fungal growth incubated for 24 hrs by CLSI based serial microbroth dilution method. The format is functional. Particulars: Lodderomyces parapsilosis. In general terms: In broth dilution the organism is exposed to a series of concentrations in liquid medium.

In data set [3] the test system is Pichia kudriavzevii. Nature of the data set: Antifungal activity against Candida krusei 432M assessed as reduction in fungal growth incubated for 48 hrs by CLSI based serial microbroth dilution method. The format is functional.
The subject of data set [4] is Nakaseomyces glabratus. The data set is described as follows: Antifungal activity against Candida glabrata 61L assessed as reduction in fungal growth incubated for 24 hrs by CLSI based serial microbroth dilution method. The format is functional.
Data set [5] relates to Trichophyton rubrum. The data set is described as follows: Antifungal activity against Trichophyton rubrum 2002 assessed as reduction in fungal growth incubated for 48 hrs by CLSI based serial microbroth dilution method. In kind it is functional.
In data set [6] the test system is Nakaseomyces glabratus. Nature of the data set: Antifungal activity against Candida glabrata 61L assessed as reduction in fungal growth incubated for 48 hrs by CLSI based serial microbroth dilution method. The format is functional.
For data set [7], the system named is Candida albicans. Nature of the data set: Antifungal activity against Candida albicans CBS 8837 assessed as reduction in fungal growth incubated for 24 hrs by CLSI based serial microbroth dilution method. In kind it is functional.
Data set [8] relates to Candida albicans. Nature of the data set: Antifungal activity against Candida albicans 8R assessed as reduction in fungal growth incubated for 24 hrs by CLSI based serial microbroth dilution method. The format is functional.
For data set [9], the system named is Cryptococcus neoformans. The data set is described as follows: Antifungal activity against Cryptococcus neoformans assessed as reduction in fungal growth incubated for 24 hrs by CLSI based serial microbroth dilution method. The format is functional.
The subject of data set [10] is Cyberlindnera jadinii. The data set is described as follows: Antifungal activity against Candida utilis 84 assessed as reduction in fungal growth incubated for 24 hrs by CLSI based serial microbroth dilution method. In kind it is functional. Conditions: Williopsis jadinii.
Data set [11] deals with Candida albicans. Nature of the data set: Antifungal activity against Candida albicans CBS 8837 assessed as reduction in fungal growth incubated for 48 hrs by CLSI based serial microbroth dilution method. The format is functional.
For data set [12], the system named is Candida albicans. The data set is described as follows: Antifungal activity against Candida albicans ATCC 24433 assessed as reduction in fungal growth incubated for 24 hrs by CLSI based serial microbroth dilution method. In kind it is functional.
The test system of data set [13] is Trichophyton rubrum. Nature of the data set: Antifungal activity against Trichophyton rubrum 2002 assessed as reduction in fungal growth incubated for 24 hrs by CLSI based serial microbroth dilution method. In kind it is functional.
Data set [14] relates to Pichia kudriavzevii. The data set is described as follows: Antifungal activity against Candida krusei 432M assessed as reduction in fungal growth incubated for 24 hrs by CLSI based serial microbroth dilution method. In kind it is functional.
For data set [15], the system named is Candida tropicalis. Nature of the data set: Antifungal activity against Candida tropicalis 3019 assessed as reduction in fungal growth incubated for 24 hrs by CLSI based serial microbroth dilution method. The format is functional.
Data set [16] concerns Cryptococcus neoformans. The data set is described as follows: Antifungal activity against Cryptococcus neoformans assessed as reduction in fungal growth incubated for 48 hrs by CLSI based serial microbroth dilution method. In kind it is functional.
The test system of data set [17] is Microsporum canis. The data set is described as follows: Antifungal activity against Microsporum canis B-200 assessed as reduction in fungal growth incubated for 48 hrs by CLSI based serial microbroth dilution method. In kind it is functional.
Data set [18] deals with Aspergillus niger. Nature of the data set: Antifungal activity against Aspergillus niger 37a assessed as reduction in fungal growth incubated for 48 hrs by CLSI based serial microbroth dilution method. In kind it is functional.
The subject of data set [19] is Candida albicans. Nature of the data set: Antifungal activity against Candida albicans ATCC 24433 assessed as reduction in fungal growth incubated for 48 hrs by CLSI based serial microbroth dilution method. The format is functional.
The test system of data set [20] is Candida parapsilosis. The data set is described as follows: Antifungal activity against Candida parapsilosis ATCC 22019 assessed as reduction in fungal growth incubated for 48 hrs by CLSI based serial microbroth dilution method. In kind it is functional. Conditions: Lodderomyces parapsilosis.
For data set [21], the system named is Cyberlindnera jadinii. Nature of the data set: Antifungal activity against Candida utilis 84 assessed as reduction in fungal growth incubated for 48 hrs by CLSI based serial microbroth dilution method. In kind it is functional. Particulars: Williopsis jadinii.
Data set [22] deals with Candida albicans. Nature of the data set: Antifungal activity against Candida albicans 604M assessed as reduction in fungal growth incubated for 48 hrs by CLSI based serial microbroth dilution method. In kind it is functional.
The subject of data set [23] is Microsporum canis. Nature of the data set: Antifungal activity against Microsporum canis B-200 assessed as reduction in fungal growth incubated for 24 hrs by CLSI based serial microbroth dilution method. The format is functional.
Data set [24] concerns Aspergillus niger. The data set is described as follows: Antifungal activity against Aspergillus niger 37a assessed as reduction in fungal growth incubated for 24 hrs by CLSI based serial microbroth dilution method. The format is functional.
In data set [25] the test system is Candida albicans. The data set is described as follows: Antifungal activity against Candida albicans 8R assessed as reduction in fungal growth incubated for 48 hrs by CLSI based serial microbroth dilution method. In kind it is functional.
Data set [26] concerns Candida tropicalis. The data set is described as follows: Antifungal activity against Candida tropicalis 3019 assessed as reduction in fungal growth incubated for 48 hrs by CLSI based serial microbroth dilution method. In kind it is functional.
A short description of data set [27]: 1-octanol/aqueous buffer distribution coefficient, logP of the compound at pH 7.4. In kind it is physicochemical.

In general, MIC refers to the lowest concentration that inhibits growth of the organism. Consider `O=c1c2sc(=S)n(-c3ccc(Cl)cc3)c2ncn1CCCN1CCN(CC(O)(Cn2cncn2)c2ccc(F)cc2F)CC1` (stereo not drawn), for which the MIC in [1] amounted to 32 µg/mL (≈ 48.5 µM); in [2] it was 0.25 µg/mL (≈ 0.379 µM); in data set [3], 32 µg/mL (≈ 48.5 µM); in data set [4] it was 2 µg/mL (≈ 3.03 µM); in [5], 16 µg/mL (≈ 24.3 µM); in data set [6], 32 µg/mL (≈ 48.5 µM). Moreover, the MIC in data set [7] came out at 16 µg/mL (≈ 24.3 µM); in data set [8] it was 32 µg/mL (≈ 48.5 µM); in data set [9], 32 µg/mL (≈ 48.5 µM); in data set [10], 2 µg/mL (≈ 3.03 µM); in data set [11], 32 µg/mL (≈ 48.5 µM); in data set [12] it was 16 µg/mL (≈ 24.3 µM). In addition, the MIC in data set [13] is 16 µg/mL (≈ 24.3 µM); in data set [14], 16 µg/mL (≈ 24.3 µM); in data set [15], 8 µg/mL (≈ 12.1 µM); in [16], 32 µg/mL (≈ 48.5 µM); in [17] it was 32 µg/mL (≈ 48.5 µM); in data set [18], 32 µg/mL (≈ 48.5 µM). The MIC was found to be 32 µg/mL (≈ 48.5 µM) in [19]; 0.25 µg/mL (≈ 0.379 µM) in [20]; 2 µg/mL (≈ 3.03 µM) in data set [21]; 32 µg/mL (≈ 48.5 µM) in [22]; 32 µg/mL (≈ 48.5 µM) in data set [23]; 32 µg/mL (≈ 48.5 µM) in data set [24]. For the same molecule, the figures for the MIC in data set [25] and in [26] were 32 µg/mL (≈ 48.5 µM) and 8 µg/mL (≈ 12.1 µM), respectively.
The logD is lipophilicity at a set pH, counting ionised and neutral species. Read a high logD as higher lipophilicity. On to `Cc1ccc(-n2c(=S)sc3c(=O)n(CC(O)(Cn4cncn4)c4ccc(F)cc4F)cnc32)cc1` (stereo not drawn), for which the logD in [27] turned out to be 0.79.
In the case of `O=c1c2sc(=S)n(-c3ccc(F)cc3)c2ncn1CCN1CCN(CC(O)(Cn2cncn2)c2ccc(F)cc2F)CC1` (stereo not drawn), the minimal inhibitory concentration (MIC) in data set [1] was 32 µg/mL (≈ 50.9 µM); in data set [2] it was 0.5 µg/mL (≈ 0.795 µM); in data set [3], 32 µg/mL (≈ 50.9 µM); in data set [4], 32 µg/mL (≈ 50.9 µM); in [5], 32 µg/mL (≈ 50.9 µM); in [6], 32 µg/mL (≈ 50.9 µM). Moreover, the MIC turned out to be 32 µg/mL (≈ 50.9 µM) in data set [7]; 32 µg/mL (≈ 50.9 µM) in data set [8]; 32 µg/mL (≈ 50.9 µM) in data set [9]; 32 µg/mL (≈ 50.9 µM) in [10]; 32 µg/mL (≈ 50.9 µM) in data set [11]; 8 µg/mL (≈ 12.7 µM) in [12]. In addition, the MIC in data set [13], in data set [14], in data set [15], in data set [16], in [17] and in [18] was 32 µg/mL (≈ 50.9 µM) in each case. The MIC in [19] was 8 µg/mL (≈ 12.7 µM); in data set [20], 1 µg/mL (≈ 1.59 µM); in [21], 32 µg/mL (≈ 50.9 µM); in [22], 32 µg/mL (≈ 50.9 µM); in data set [23], 32 µg/mL (≈ 50.9 µM); in [24], 32 µg/mL (≈ 50.9 µM). In addition, the MIC in data set [25] and in data set [26] was 32 µg/mL (≈ 50.9 µM) throughout.
Turning to `O=C(Cn1cnc2c(sc(=S)n2-c2ccc(Cl)cc2)c1=O)NCC(O)(Cn1cncn1)c1ccc(F)cc1F` (stereo not drawn), the logD in data set [27] turned out to be 1.16.
Same read-out and setting: under `O=C(Cn1cnc2c(sc(=S)n2-c2ccc(F)cc2)c1=O)NCC(O)(Cn1cncn1)c1ccc(F)cc1F` (stereo not drawn) stands 0.79.
As to `Cc1ccc(-n2c(=S)sc3c(=O)n(CCCN4CCN(CC(O)(Cn5cncn5)c5ccc(F)cc5F)CC4)cnc32)cc1` (stereo not drawn), the MIC is 32 µg/mL (≈ 50.1 µM) in [1]; 0.5 µg/mL (≈ 0.783 µM) in data set [2]; 32 µg/mL (≈ 50.1 µM) in [3]; 2 µg/mL (≈ 3.13 µM) in [4]; 32 µg/mL (≈ 50.1 µM) in [5]; 32 µg/mL (≈ 50.1 µM) in data set [6]. In addition, the MIC in data set [7] amounted to 16 µg/mL (≈ 25 µM); in [8], 16 µg/mL (≈ 25 µM); in data set [9], 64 µg/mL (≈ 100 µM); in data set [10] it was 4 µg/mL (≈ 6.26 µM); in [11], 32 µg/mL (≈ 50.1 µM); in data set [12] it was 16 µg/mL (≈ 25 µM). Besides, the MIC in [13] was found to be 32 µg/mL (≈ 50.1 µM); in data set [14], 16 µg/mL (≈ 25 µM); in [15], 8 µg/mL (≈ 12.5 µM); in data set [16], 64 µg/mL (≈ 100 µM); in [17], 32 µg/mL (≈ 50.1 µM); in data set [18], 32 µg/mL (≈ 50.1 µM). Also, the MIC turned out to be 32 µg/mL (≈ 50.1 µM) in data set [19]; 0.5 µg/mL (≈ 0.783 µM) in [20]; 4 µg/mL (≈ 6.26 µM) in [21]; 32 µg/mL (≈ 50.1 µM) in data set [22]; 32 µg/mL (≈ 50.1 µM) in data set [23]; 32 µg/mL (≈ 50.1 µM) in data set [24]. For the same molecule, the MIC came to 32 µg/mL (≈ 50.1 µM) in data set [25] and 16 µg/mL (≈ 25 µM) in data set [26]. For the same molecule, in [27], the logD amounted to 4.1.
In the case of `COc1ccccc1-n1c(=S)sc2c(=O)n(CC(=O)NCC(O)(Cn3cncn3)c3ccc(F)cc3F)cnc21` (stereo not drawn), the logD in data set [27] is 0.8.
